Measurements reported in ChEMBL document CHEMBL1201861, “Genomics of Drug Sensitity in Cancer screening data, Wellcome Trust Sanger Institute”.

How the values were obtained:
Experiment in all cases: cells
NCI-H1304 = assay type: functional, cell-based, Homo sapiens; details: Homo sapiens, NCI-H1304;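 note: growth inhibition of the cancer cell line, measured in a cell viability assay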
Description: SANGER: Inhibition of human NCI-H1304 cell growth in a cell viability assay.

MFM-223 = assay type: functional, cell-based, Homo sapiens; details: Homo sapiens, MFM-223
Description: SANGER: Inhibition of human MFM-223 cell growth in a cell viability assay.

KM12 = assay type: functional, cell-based, Homo sapiens; details: Homo sapiens, KM12;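 note: KM12 cell growth inhibition, read out with a cell viability assay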
Description: SANGER: Inhibition of human KM12 cell growth in a cell viability assay.

KGN = assay type: functional, cell-based, Homo sapiens; details: Homo sapiens, KGN;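 note: growth inhibition of KGN cells, read out with a cell viability assay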
Description: SANGER: Inhibition of human KGN cell growth in a cell viability assay.

KU812 cell line = assay type: functional, cell-based, Homo sapiens; details: Homo sapiens, KU812;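 note: growth inhibition of KU812 cells, read out with a cell viability assay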
Description: SANGER: Inhibition of human KU812 cell growth in a cell viability assay.

LB2241-RCC = assay type: functional, cell-based, Homo sapiens; details: Homo sapiens, LB2241-RCC;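 note: cell viability assay measuring how strongly the cultured human renal carcinoma line is prevented from growing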
HCC2157 = assay type: functional, cell-based, Homo sapiens; details: Homo sapiens, HCC2157;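 note: growth inhibition of the cancer cell line, read out as cell viability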
Description: SANGER: Inhibition of human HCC2157 cell growth in a cell viability assay.

697 = assay type: functional, cell-based, Homo sapiens; details: Homo sapiens
EOL1 = assay type: functional, cell-based, Homo sapiens; details: Homo sapiens, EOL1;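 note: growth inhibition of EoL-1 cells, read out by a cell viability assay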
SHP77 = assay type: functional, cell-based, Homo sapiens, SHP-77; details: Homo sapiens, SHP77;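 note: growth inhibition of human SHP-77 cells measured by a cell viability assay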
KLE = assay type: functional, cell-based; details: Homo sapiens;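 note: growth inhibition of human KLE cells, read out with a cell viability assay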
Description: SANGER: Inhibition of human KLE cell growth in a cell viability assay.

LS-513 = assay type: functional, cell-based, Homo sapiens; details: Homo sapiens, LS-513
Description: SANGER: Inhibition of human LS-513 cell growth in a cell viability assay.

KM-H2 = assay type: functional, cell-based, Homo sapiens; details: Homo sapiens, KM-H2;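 note: growth inhibition of KM-H2 cells, read out by a cell viability assay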
Description: SANGER: Inhibition of human KM-H2 cell growth in a cell viability assay.

SCC-15 = assay type: functional, cell-based, Homo sapiens; details: Homo sapiens, SCC-15;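 note: growth inhibition of SCC-15 cells, read out with a cell viability assay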
COLO-684 = assay type: functional, cell-based, Homo sapiens; details: Homo sapiens, COLO-684
J-RT3-T3-5 = assay type: functional, cell-based, Homo sapiens; details: Homo sapiens, J-RT3-T3-5;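 note: cell viability assay measuring growth inhibition of human J-RT3-T3-5 cells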
NCI-H2171 = assay type: functional, cell-based, Homo sapiens; details: Homo sapiens, NCI-H2171;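 note: growth inhibition of human NCI-H2171 cells, read out by a cell viability assay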
Description: SANGER: Inhibition of human NCI-H2171 cell growth in a cell viability assay.

D-502MG = assay type: functional, cell-based, Homo sapiens; details: Homo sapiens, D-502MG
Description: SANGER: Inhibition of human D-502MG cell growth in a cell viability assay.

TE-5 = assay type: functional, cell-based, Homo sapiens; details: Homo sapiens, TE-5;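 note: inhibition of cell growth, read out by a cell viability assay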
Description: SANGER: Inhibition of human TE-5 cell growth in a cell viability assay.

SW872 = assay type: functional, cell-based, Homo sapiens; details: Homo sapiens, SW872;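 note: growth inhibition of SW872 cells, read out by a viability assay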
Description: SANGER: Inhibition of human SW872 cell growth in a cell viability assay.

DEL = assay type: functional, cell-based, Homo sapiens; details: Homo sapiens, DEL;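 note: growth inhibition of the human DEL cell line, read out with a cell viability assay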
Description: SANGER: Inhibition of human DEL cell growth in a cell viability assay.

GB-1 = assay type: functional, cell-based, Homo sapiens; details: Homo sapiens, GB-1;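 note: growth of GB-1 cells judged by a viability assay, IC50 marks the concentration inhibiting growth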
Description: SANGER: Inhibition of human GB-1 cell growth in a cell viability assay.

L-428 = assay type: functional, cell-based, Homo sapiens; details: Homo sapiens, L-428
Description: SANGER: Inhibition of human L-428 cell growth in a cell viability assay.

NCI-H1417 = assay type: functional, cell-based, Homo sapiens; details: Homo sapiens, NCI-H1417;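 note: human NCI-H1417 cells, growth inhibition determined with a cell viability readout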
Description: SANGER: Inhibition of human NCI-H1417 cell growth in a cell viability assay.

SF-539 = assay type: functional, cell-based, Homo sapiens; details: Homo sapiens, SF-539;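 note: Read-out is a cell viability assay, with IC50 reflecting inhibition of cell growth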
Description: SANGER: Inhibition of human SF539 cell growth in a cell viability assay.

KARPAS-299 = assay type: functional, cell-based, Homo sapiens; details: Homo sapiens, KARPAS-299
Description: SANGER: Inhibition of human KARPAS-299 cell growth in a cell viability assay.

MZ7-mel = assay type: functional, cell-based, Homo sapiens; details: Homo sapiens, MZ7-mel;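 note: growth inhibition of human MZ7-mel cells, measured by a cell viability assay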
Description: SANGER: Inhibition of human MZ7-mel cell growth in a cell viability assay.

LB831-BLC = assay type: functional, cell-based, Homo sapiens; details: Homo sapiens, LB831-BLC;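 note: growth inhibition of LB831-BLC cells, read out with a cell viability assay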
Description: SANGER: Inhibition of human LB831-BLC cell growth in a cell viability assay.

LB996-RCC = assay type: functional, cell-based, Homo sapiens; details: Homo sapiens, LB996-RCC
Description: SANGER: Inhibition of human LB996-RCC cell growth in a cell viability assay.

NEC8 = assay type: functional, cell-based, Homo sapiens; details: Homo sapiens, NEC8;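 note: growth inhibition of human NEC8 cells, read out by a cell viability assay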
Description: SANGER: Inhibition of human NEC8 cell growth in a cell viability assay.

KNS-42 = assay type: functional, cell-based; details: Homo sapiens;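 note: growth inhibition of KNS-42 cells, read out with a cell viability assay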
Description: SANGER: Inhibition of human KNS-42 cell growth in a cell viability assay.

SK-UT-1 = assay type: functional, cell-based, Homo sapiens; details: Homo sapiens, SK-UT-1;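 note: growth inhibition of SK-UT-1 cells, measured by a cell viability assay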
Description: SANGER: Inhibition of human SK-UT-1 cell growth in a cell viability assay.

CAS-1 = assay type: functional, cell-based, Homo sapiens; details: Homo sapiens, CAS-1;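 note: growth inhibition of CAS-1 cells, measured with a cell viability assay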
SK-MEL-1 = assay type: functional, cell-based, Homo sapiens; details: Homo sapiens, SK-MEL-1;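 note: growth inhibition of human SK-MEL-1 cells, read out by a cell viability assay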
Description: SANGER: Inhibition of human SK-MEL-1 cell growth in a cell viability assay.

ATN-1 = assay type: functional, cell-based, Homo sapiens; details: Homo sapiens, ATN-1;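 note: growth inhibition of human ATN-1 cells, read out with a cell viability assay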
Description: SANGER: Inhibition of human ATN-1 cell growth in a cell viability assay.

RPMI-8866 = assay type: functional, cell-based, Homo sapiens; details: Homo sapiens, RPMI-8866
SNU-C2B = assay type: functional, cell-based; details: Homo sapiens;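 note: cell viability readout used to measure compound-driven suppression of SNU-C2B cell proliferation, IC50 marking half-maximal growth inhibition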
Description: SANGER: Inhibition of human SNU-C2B cell growth in a cell viability assay.

COLO-829 = assay type: functional, cell-based, Homo sapiens; details: Homo sapiens, COLO-829
Description: SANGER: Inhibition of human COLO-829 cell growth in a cell viability assay.

SNU1 = assay type: functional, cell-based, Homo sapiens; details: Homo sapiens, SNU1;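 note: growth inhibition of human NCI-SNU-1 cells, measured with a cell viability assay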
Description: SANGER: Inhibition of human NCI-SNU-1 cell growth in a cell viability assay.

SK-N-FI = assay type: functional, cell-based, Homo sapiens; details: Homo sapiens, SK-N-FI;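 note: cell viability assay measuring growth inhibition of human SK-N-FI cells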
Description: SANGER: Inhibition of human SK-N-FI cell growth in a cell viability assay.

CCRF-CEM = assay type: functional, cell-based, Homo sapiens; details: Homo sapiens, CCRF-CEM;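 note: inhibition of CCRF-CEM cell growth, measured by a cell viability assay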
Description: SANGER: Inhibition of human CCRF-CEM cell growth in a cell viability assay.

OVCAR-4 = assay type: functional, cell-based, Homo sapiens; details: Homo sapiens, OVCAR-4;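 note: growth inhibition of human OVCAR-4 cells, measured with a cell viability assay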
Description: SANGER: Inhibition of human OVCAR-4 cell growth in a cell viability assay.

TGBC1TKB = assay type: functional, cell-based, Homo sapiens; details: Homo sapiens, TGBC1TKB;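 note: growth inhibition of TGBC1TKB cells, read out by a cell viability assay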
Description: SANGER: Inhibition of human TGBC1TKB cell growth in a cell viability assay.

HCC2218 = assay type: functional, cell-based, Homo sapiens; details: Homo sapiens, HCC2218;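 note: cell viability assay read-out, with IC50 given as the concentration that inhibits growth of the cell line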
Description: SANGER: Inhibition of human HCC2218 cell growth in a cell viability assay.

EW-16 = assay type: functional, cell-based, Homo sapiens; details: Homo sapiens, EW-16;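 note: growth inhibition of human EW-16 cells, read out as cell viability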
Description: SANGER: Inhibition of human EW-16 cell growth in a cell viability assay.

ES8 = assay type: functional, cell-based, Homo sapiens; details: Homo sapiens, ES8;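 note: growth inhibition of human ES8 cells, read out with a cell viability assay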
Description: SANGER: Inhibition of human ES8 cell growth in a cell viability assay.

KARPAS-45 = assay type: functional, cell-based, Homo sapiens; details: Homo sapiens, KARPAS-45;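 note: inhibition of cell line growth, read out through a viability assay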
Description: SANGER: Inhibition of human KARPAS-45 cell growth in a cell viability assay.

Mo = assay type: functional, cell-based, Homo sapiens; details: Homo sapiens, Mo
Description: SANGER: Inhibition of human Mo-T cell growth in a cell viability assay.

SW982 = assay type: functional, cell-based; details: Homo sapiens;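 note: growth inhibition of SW982 cells, read out with a cell viability assay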
Description: SANGER: Inhibition of human SW982 cell growth in a cell viability assay.

HCE-T = assay type: functional, cell-based, Homo sapiens; details: Homo sapiens, HCE-T;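 note: cell viability assay read-out, reporting inhibition of HCE-T cell growth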
Description: SANGER: Inhibition of human HCE-T cell growth in a cell viability assay.

Which results are given for `Cc1ccc(NC(=O)c2ccc(CN3CCN(C)CC3)cc2)cc1Nc1nccc(-c2cccnc2)n1` [IMATINIB]?
IC50 (NCI-H1304): > 2000 nM; IC50 (MFM-223): > 2000 nM; IC50 (KM12): > 2000 nM; IC50 (KGN): > 2000 nM; IC50 (KU812 cell line): > 2000 nM; IC50 (LB2241-RCC): > 2000 nM; IC50 (HCC2157): > 2000 nM; IC50 697: > 2000 nM; IC50 (EOL1): > 2000 nM; IC50 (SHP77): > 2000 nM; IC50 (KLE): > 2000 nM; IC50 (LS-513): > 2000 nM; IC50 (KM-H2): > 2000 nM; IC50 (SCC-15): > 2000 nM; IC50 (COLO-684): > 2000 nM; IC50 (J-RT3-T3-5): > 2000 nM; IC50 (NCI-H2171): > 2000 nM; IC50 (D-502MG): > 2000 nM; IC50 (TE-5): > 2000 nM; IC50 (SW872): > 2000 nM; IC50 (DEL): > 2000 nM; IC50 (GB-1): > 2000 nM; IC50 (L-428): > 2000 nM; IC50 (NCI-H1417): > 2000 nM; IC50 (SF-539): > 2000 nM; IC50 (KARPAS-299): > 2000 nM; IC50 (MZ7-mel): > 2000 nM; IC50 (LB831-BLC): > 2000 nM; IC50 (LB996-RCC): > 2000 nM; IC50 (NEC8): > 2000 nM; IC50 (KNS-42): > 2000 nM; IC50 (SK-UT-1): > 2000 nM; IC50 (CAS-1): > 2000 nM; IC50 (SK-MEL-1): > 2000 nM; IC50 (ATN-1): > 2000 nM; IC50 (RPMI-8866): > 2000 nM; IC50 (SNU-C2B): > 2000 nM; IC50 (COLO-829): > 2000 nM; IC50 (SNU1): > 2000 nM; IC50 (SK-N-FI): > 2000 nM; IC50 (CCRF-CEM): > 2000 nM; IC50 (OVCAR-4): > 2000 nM; IC50 (TGBC1TKB): > 2000 nM; IC50 (HCC2218): > 2000 nM; IC50 (EW-16): > 2000 nM; IC50 (ES8): > 2000 nM; IC50 (KARPAS-45): > 2000 nM; IC50 (Mo): > 2000 nM; IC50 (SW982): > 2000 nM; IC50 (HCE-T): > 2000 nM

`C/C(=C\c1csc(C)n1)[C@@H]1C[C@@H]2O[C@]2(C)CCC[C@H](C)[C@H](O)[C@@H](C)C(=O)C(C)(C)[C@@H](O)CC(=O)O1` [PATUPILONE] was tested. Which IC50 (NCI-H1304) did it give?
Its IC50 is 17.5 nM.

And the IC50 (MFM-223)?
Its IC50 is greater than 32 nM.

And the IC50 (KM12)?
The IC50 was 2.24 nM.

And the IC50 (KGN)?
The IC50 was 0.617 nM.

What about the IC50 (KU812 cell line) of the same molecule?
Its IC50 is 3.45 nM.

And the IC50 (LB2241-RCC)?
Its IC50 is 5.55 nM.

And the IC50 (HCC2157)?
The IC50 was 1.28 nM.

What about the IC50 697 of the same molecule?
The IC50 was 1.78 nM.

What about the IC50 (EOL1) of the same molecule?
Its IC50 is 12.9 nM.

What about the IC50 (SHP77) of the same molecule?
Its IC50 is 4.92 nM.

What about the IC50 (KLE) of the same molecule?
Its IC50 is greater than 32 nM.

And the IC50 (LS-513)?
The IC50 was greater than 32 nM.

And the IC50 (KM-H2)?
Its IC50 is 9.06 nM.

And the IC50 (SCC-15)?
Its IC50 is 5.98 nM.

What about the IC50 (COLO-684) of the same molecule?
Its IC50 is 6.97 nM.

And the IC50 (J-RT3-T3-5)?
Its IC50 is 13.5 nM.

What about the IC50 (NCI-H2171) of the same molecule?
The IC50 was 9.62 nM.

And the IC50 (D-502MG)?
The IC50 was greater than 32 nM.

What about the IC50 (TE-5) of the same molecule?
The IC50 was 3.04 nM.

And the IC50 (SW872)?
Its IC50 is 0.774 nM.

And the IC50 (DEL)?
Its IC50 is 4.29 nM.

What about the IC50 (GB-1) of the same molecule?
Its IC50 is 1.19 nM.

And the IC50 (L-428)?
The IC50 was greater than 32 nM.

What about the IC50 (NCI-H1417) of the same molecule?
Its IC50 is 21 nM.

And the IC50 (SF-539)?
Its IC50 is 2.27 nM.

And the IC50 (KARPAS-299)?
Its IC50 is greater than 32 nM.

And the IC50 (MZ7-mel)?
Its IC50 is 17.1 nM.

And the IC50 (LB831-BLC)?
Its IC50 is 6.03 nM.

What about the IC50 (LB996-RCC) of the same molecule?
The IC50 was 6.03 nM.

And the IC50 (NEC8)?
The IC50 was 3.53 nM.

What about the IC50 (KNS-42) of the same molecule?
The IC50 was 3.91 nM.

And the IC50 (SK-UT-1)?
The IC50 was 0.892 nM.

What about the IC50 (CAS-1) of the same molecule?
The IC50 was 24.5 nM.

What about the IC50 (SK-MEL-1) of the same molecule?
The IC50 was greater than 32 nM.

And the IC50 (ATN-1)?
Its IC50 is 3.47 nM.

What about the IC50 (RPMI-8866) of the same molecule?
The IC50 was 19.8 nM.

What about the IC50 (SNU-C2B) of the same molecule?
The IC50 was 4.3 nM.

And the IC50 (COLO-829)?
The IC50 was greater than 32 nM.

And the IC50 (SNU1)?
Its IC50 is greater than 32 nM.

What about the IC50 (SK-N-FI) of the same molecule?
The IC50 was greater than 32 nM.

And the IC50 (CCRF-CEM)?
Its IC50 is 2.94 nM.

What about the IC50 (OVCAR-4) of the same molecule?
The IC50 was 1.61 nM.

And the IC50 (TGBC1TKB)?
The IC50 was greater than 32 nM.

And the IC50 (HCC2218)?
The IC50 was 30.8 nM.

And the IC50 (EW-16)?
The IC50 was 1.06 nM.

And the IC50 (ES8)?
The IC50 was 1.65 nM.

What about the IC50 (KARPAS-45) of the same molecule?
The IC50 was 5.82 nM.

And the IC50 (Mo)?
Its IC50 is greater than 32 nM.

And the IC50 (SW982)?
Its IC50 is 0.999 nM.

And the IC50 (HCE-T)?
Its IC50 is 4.07 nM.
